Assay results from a melting point compilation (Tetko et al.; mined from patent text by program, amines drawn as free bases though some values may be those of a salt).

| SMILES | melting point [°C] |
| --- | --- |
| Cc1cccc(C)c1NC(=O)N(Cc1ccccc1)CC(c1ccccc1)c1ccccc1 | 205 to 208 |
| Cn1c(=O)cc(C(N)=S)c2cc(C(=O)c3ccc(Cl)cc3)ccc21 | 210 |
| NC(=O)c1nn(-c2ccc(F)cc2)c2c1CCc1ccc(NC(=O)c3cc(N4CCOCC4)ncc3Cl)cc1-2 | 309 to 313 |
| Cc1cc(-c2ccc(C(F)(F)F)cc2)nc2c(C(=O)Nc3cccc(S(N)(=O)=O)c3)cnn12 | 270 to 272 |
| COc1ccc(C(O)Cc2c(Cl)cccc2Cl)cc1OC1CCCC1 (stereo not given) | 87 to 89 |
| COCCc1cc(N2CCNCC2)n2nc(SC)c(S(=O)(=O)c3ccccc3)c2n1 | 170 to 171 |
| O=C(Nc1nc(=O)n(S(=O)(=O)c2ccccc2)cc1F)Oc1ccccc1 | 182 to 185 |
| NS(=O)(=O)c1ccc(-c2cc(-c3nc(-c4ccc(Cl)c(Cl)c4)cc(C(F)(F)F)n3)ccn2)s1 | 266 |
| CN(Cc1cnn(C)c1)c1ccc(Br)cc1C=O | 80 to 81 |
| CCCCCCOC(=O)C1=C(C)NN=C(c2ccccc2)C1c1cccc(Cl)c1 (stereo not given) | 103 |
| COc1c(O)cc(C)c(OC(=O)c2ccccc2)c1OC | 109 to 111 |
| Nc1cccc(S(=O)(=O)NCc2cccnc2)c1 | 129 |
| CCOc1cccc(C(C)=O)n1 | 36 to 37 |
| COCCNC(=O)Nc1c(C)c(C)c2c(c1C)C(c1ccc(C(C)C)cc1)CO2 (stereo not given) | 172 to 173 |
| C=C(Cn1ccnc1)c1cc(F)ccc1OCc1ccc(Cl)cc1Cl | 79 to 82 |
| O=C(c1c[nH]c2cc(Oc3ccc(F)cc3)ccc12)C1CSC(c2cccnc2)N1 (stereo not given) | 189 to 191 |
| CN1CCC(c2c[nH]c3ccc(NC(=O)c4cc5ccccc5s4)nc23)CC1 | 202 to 204 |
| COc1ccc(-c2cc3c(Br)c(OC)ccc3o2)cc1 | 115 to 117 |
| COCCOc1cc2c(Nc3ccc(Sc4nccn4C)c(Cl)c3)c(C#N)cnc2cc1OCCCN(C)C | 194 to 203 |
| Cc1nn(CC(F)(F)COC(=O)CN(C)C)c(-c2ccc(F)cc2)c1-c1ccc2c(c1)NC(=O)CO2 | 153 to 155 |
| Cn1cc(C(=O)NS(=O)(=O)c2cccs2)cn1 | 174 to 180 |
| CCC12CC3CC(CC(C)(C3)C1)C2 | < 80 |
| N#CC(=Cc1ccc2c(c1)OCO2)CN1CCOCC1 | 82 to 84 |
| Cc1ccc(OCCN2CCN(c3cc(Cl)nnc3Cl)CC2)cc1 | 95 to 96 |
| O=C(O)c1cnn2c(C(F)F)cc(-c3ccc(C(F)(F)F)c(OCC(F)(F)F)c3)nc12 | 261 |

| SMILES | melting point [°C] |
| --- | --- |
| O=c1c2c(c3cccnc3n1-c1ccccc1)OCCCC2 | 180 to 181 |
| CC(C)(C)OC(=O)N1CSCC1C(=O)Nc1ccc(-n2nc(C(F)(F)F)cc2C(F)(F)F)cc1 (stereo not given) | 82 to 84 |
| Cc1nn(C)c2c(=O)n(C)c(=O)n(C)c12 | 210 to 211 |
| CN1C(=O)C=C[C@]2(C)c3ccc(-c4cccc([N+](=O)[O-])c4)cc3CC[C@@H]12 | 175 to 177 |
| CS(=O)c1c(C2(C)NCCS2)nn(-c2c(Cl)cc(C(F)(F)F)cc2Cl)c1N (stereo not given) | 85 |
| O=c1[nH]c2ccc(CCCN3CCC(Cc4ccc(F)cc4)CC3)cc2o1 | 105 to 107 |
| Nc1nc(-c2ccc(NC(=O)CN(Cc3ccccc3)S(=O)(=O)N3CCOCC3)cc2)cs1 | 193 to 194 |
| Cc1ccc(SC(C#N)c2ccc(C(=O)c3cccs3)cc2)cc1 (stereo not given) | 124 to 126 |
| CCOC(=O)c1cc(NCc2ccccc2)c(Oc2cccc(C(F)(F)F)c2)c(S(N)(=O)=O)c1 | 166 to 168 |
| COc1ccc2c(c1)C(C)CC1C2CCC2(C)C(=O)CCC12 (stereo not given) | 108 to 109 |
| NC(=O)COc1ncc(Cl)c(N)c1Cl | 192 to 193 |
| O=C(NCCO)c1c([N+](=O)[O-])ccc(N(CCBr)CCBr)c1[N+](=O)[O-] | 94 to 97 |
| Brc1ccc(-c2nc(-c3cccc(Br)c3)n(-c3ccccc3)n2)cc1 | 129 to 131 |
| C[C@H](CN1CC[C@@H](F)C1)NC(=O)c1c[nH]c2ncc(-c3nn(C)c4cc(Cl)ccc34)nc12 | 233 to 234 |
| COc1ccc2c(c1)CC(n1cc[nH]c1=S)CC2 (stereo not given) | 271 to 273 |
| CS(=O)(=O)c1nccc(Cl)n1 | 91 to 93 |
| CCOC(=O)/C=C/c1ccc(O)cc1Oc1ncc(C(F)(F)F)cc1Cl | 124 |
| CC(=O)N(O)C(C)c1ccc2c(c1)Cc1ccccc1-2 (stereo not given) | 168 to 171 |
| CCC1(CC)NC(=O)C(CC)(CC)N1OC(C)(C)C#N | 125 to 130 |
| CCOC(=O)c1cn2c(-c3ccccc3)cccc2n1 | 123 to 124 |
| CN=C1N(c2c(C)cccc2C)CCN1c1c(C)cccc1C | 180 to 181 |
| CCOC(=O)C(C)(C)c1ccc(N[C@@H](CCC(N)=O)C(=O)O)cc1 | 147 to 148 |
| CC(C)(C)c1cc(CCc2ccc(NC(=O)NC3CCN(Cc4ccccc4)CC3)cc2)cc(C(C)(C)C)c1O | 195 to 197 |
| COC(=O)C=Cc1ccc(-n2ccn(-c3ccc(C#N)cc3)c2=O)cc1 | 210 to 212 |
| CCCCCCCCCCCOc1ccc(O)cc1C=O | 66 to 67 |

| SMILES | melting point [°C] |
| --- | --- |
| COc1ccc2c(c1)C(CCNC(=O)C(F)(F)F)=CC2 | 87 to 88 |
| O=C1OC(Cl)(C(=O)OCc2ccc([N+](=O)[O-])cc2)c2ccccc21 (stereo not given) | 132 to 134 |
| Nc1ccc2ccc(Nc3ccccc3)nc2n1 | 250 |
| COC(=O)c1ccc2nc3c(c(C)nn3-c3ccccn3)c(Cl)c2c1 | 199 to 200 |
| CCn1cnc(N2CCc3ccccc3CC2)c(C#N)c1=O | 138 to 140 |
| COC(=O)c1cccc(CN2C(=O)C(CCO)Oc3ccccc32)c1 (stereo not given) | 73 to 75 |
| CCCCCCNCCC(=O)O | 95 to 97 |
| NC(CF)(Cc1cc(O)ccc1O)C(=O)O (stereo not given) | 212 |
| CCCCc1ccc2c(c1)C(=O)N(c1ccc3c(ccn3C)c1)C2 | 167 to 168 |
| COc1cc(N)c(Cl)cc1C(=O)NC1CN(C)N(C)C1 | 169 to 171 |
| CCCCCCCCCCCCCCCC(=O)C(O)C(=O)C(O)C(=O)CCCCCCCCCCCCCCC (stereo not given) | 80 to 81 |
| Nc1ccc(C2Nc3ccccc3C(=O)N2c2ccccc2)cc1 (stereo not given) | 191 |
| COc1ccccc1NC(=O)C1CCc2nc[nH]c2C1 (stereo not given) | 100 to 102 |
| CON1C(=O)CC2(CCN(CCNC(=O)c3cccnc3)CC2)C1=O | 112 to 119 |
| Nc1cccc(CCO)c1 | 61 to 64 |
| COc1ccc(N2CCN(c3c(C)c(C)c4c(c3C)CC3(CCOCC3)O4)CC2)cc1 | 153 to 155 |
| Cc1nc(-c2nc(C)c(-c3ccnc(Nc4ccc(N5CCOCC5)cc4)n3)s2)cs1 | 262 to 263 |
| NC(=O)c1cc(CO)ccc1[N+](=O)[O-] | 143 to 145 |
| O=C(O)c1nn(-c2ccc(Cl)cc2Cl)c2c1CCc1cc(C(F)(F)F)ccc1-2 | 245 |
| COc1cc(Cl)cnc1OCC#Cc1ccc(Cl)cc1 | 109 to 110 |
| NS(=O)(=O)c1cnc(NC(=O)c2cnn3c(C(F)(F)F)cc(-c4ccc(C(F)(F)F)cc4)nc23)s1 | 309 |
| CN1CC=C(c2c[nH]c3ccc([N+](=O)[O-])cc23)C(F)C1 (stereo not given) | 94 to 96 |
| O=C(Nc1ccc(O[C@H]2CC[C@H](C(=O)O)CC2)cc1)c1nnc(Nc2cc(F)c(F)cc2F)o1 | 251 to 253 |
| CN1Cc2c(C#CC(C)(C)O)ncn2-c2cccc(Br)c2C1=O | 207 to 208 |
| Nc1ccc(S(=O)(=O)Nc2ccc(C(O)(C(F)(F)F)C(F)(F)F)cc2)cc1 | 160 to 161 |

| SMILES | melting point [°C] |
| --- | --- |
| COCCOc1ccc2c(C3C(=O)Nc4ccccc43)ncnc2c1 (stereo not given) | 245 to 248 |
| Nc1ccc2[nH]c(C(=O)N3CC(CCl)c4c3cc(N)c3ccccc43)cc2c1 (stereo not given) | > 300 |
| COCc1nc2c(OC)ccc(CCc3ccncc3)c2[nH]1 | 154 to 156 |
| [N-]=[N+]=N[C@@H](Cc1ccccc1)[C@H](O)CO | 83 to 84 |
| Cc1sc2c(c1C)CNC(Cl)=N2 | 170 to 172 |
| CCOC(=O)/C(=N\OC(C)(C)C)c1csc(N)n1 | 111 to 112 |
| Cc1ccc2c(c1)C(=O)CCC21CCC(=O)N(C)C1=O (stereo not given) | 146 to 148 |
| CCc1cccc(C)c1CNc1nc(CO)cn2c(C)c(C)nc12 | 166 |
| CC(C)=CCc1cc(C=CC(=O)c2ccc(O)cc2O)ccc1O | 167 |
| CCOC(=O)CSC1(SCC(=O)OCC)CCC2C3CCC4=CC(=O)C=CC4(C)C3(F)C(O)CC21C (stereo not given) | 125 to 127 |
| Cc1cc2ccccc2n1-c1ccc(F)cc1 | 43 |
| Cc1cc(Oc2c(Cl)cc(C(F)(F)F)cc2Cl)nn1C(N)=O | 152 to 154 |
| COC(=O)c1ccc(OCC2CC(=O)N(c3ccc(OCC(C)(C)O)cc3)C2)cc1 (stereo not given) | 89.5 to 90.5 |
| CCOP(=O)(OCC)c1ccc2cc(I)cc(-c3cccc4ccccc34)c2n1 | 127 to 128 |
| CC1(C)CCc2c(N3CCOCC3)nc3sc4c(NCCCN5CCCC5=O)ncnc4c3c2C1 | 210 |
| COC(=O)c1ccc(N2CCCC2=O)c(N)c1 | 136 to 138 |
| CCCN(CCC)c1c2c(nn1C)N(c1c(C)cc(C)cc1Cl)CCC2 | 90 to 91 |
| COC(=O)COc1ccc([C@H]2c3ccc(O)cc3OC[C@H]2c2ccccc2)cc1 (racemic) | 133 to 134 |
| COc1ccc(-c2ccc3cc(OC)ccc3c2)cc1 | 190 |
| COc1ccc(CN2C(=O)C(CO)(c3ccccc3Cl)c3cc(Cl)ccc32)c(OC)c1 (stereo not given) | 165 |
| O=C(NC(=O)N1CCC(Cc2ccccc2)CC1)c1ccc(OCc2ccccc2)cc1 | 155 to 156 |
| Cc1ccc(Nc2ccccn2)c(C)c1[N+](=O)[O-] | 178 to 179 |
| CC(=O)OC1CC2CCC3C(CCC4(C)C(O)C(N5CCCC5)CC34)C2(C)CC1N1CCOCC1 (stereo not given) | 112 to 118 |
| COc1ccccc1NC(=O)N1CCc2cc(S(=O)(=O)N3CC(c4ccccc4)NC3=O)ccc21 (stereo not given) | 202 to 204 |
| O=C1c2c(-c3ccccc3)cc(CCl)nc2OCCN1Cc1cc(C(F)(F)F)cc(C(F)(F)F)c1 | 183 to 184 |
